Measurements taken from patent publication US9457044B2, “Methods and compositions for wound healing” (CoDa Therapeutics, Inc., priority 2006, dated 2016).

Key:
[1] = tested on: TGF-β1 mRNA; test: Real-Time PCR of TGF-β1 at wound sites; format: in vivo, mice
Description: (§1) Male, 8 week old, ICR mice were used in the following experiments. All the mice were kept under specific pathogen-free conditions in an environmentally controlled clean room at University College London and all the experiments were carried out under UK Home Office regulations. Mice were anaesthetized by halothane inhalation. Four full-thickness excisional wounds of 6 mm diameter were made on the shaved back on either side of the dorsal midline with a 6 mm biopsy punch (Kai Industries). To each pair of wounds a single topical application of 50 μl of 1 μM Cx43 as ODN (SEQ. ID No. 2) (Sigma-Genosys) in 30% Pluronic F-127 gel (Sigma-Aldrich), chilled on ice, was made to one wound, and an identical application of 1 μM sense control sODNs was made to the other. […] R. and Becker, D. L. (2003). Targeting connexin 43 expression accelerates the rate of wound repair. Curr Biol 13, 1697-703). Each wound region was digitally photographed at the indicated time intervals, and the areas of the wounds were calculated. All wound areas were expressed as percentages of the initial wound areas. […]
(§2) Gene specific primers and probe were obtained as TaqMan® Gene Expression Assays (Applied Biosystems) for Cx43, Ccl2, Co1α1, TNFα and TGFβ1. […] Each sample was analyzed in duplicate. […]

[2] = tested on: TNF-α mRNA; test: Real-Time PCR of TNF-α at wound sites; format: in vivo, mice; conditions: day 7; P<0.05 versus control sODN
Description: as §1, §2

[3] = tested on: F4/80-positive macrophages; test: Macrophage recruitment into wound site (F4/80 immunohistochemistry); format: in vivo, mice
Description: as §1
A treatment-blinded observer counted MPO-positive neutrophils and F4/80-positive macrophages in the wound bed (defined as the area surrounded by unwounded skin, fascia, regenerated epidermis, and eschar) in 3 random high-power fields of 0.332 mm^2. […]

[4] = tested on: collagen type 1α1; test: Real-Time PCR of Col1α1 at wound sites; parameters: species or system mice; conditions: mouse, in vivo
Description: as §1, §2

[5] = tested on: skin wounds; test: Full-thickness excisional skin wound healing (wound area, re-epithelialization); format: in vivo, mice
Description: Male, 8 week old, ICR mice were used in the following experiments. All the mice were kept under specific pathogen-free conditions in an environmentally controlled clean room at University College London and all the experiments were carried out under UK Home Office regulations. Mice were anaesthetized by halothane inhalation. Four full-thickness excisional wounds of 6 mm diameter were made on the shaved back on either side of the dorsal midline with a 6 mm biopsy punch (Kai Industries). To each pair of wounds a single topical application of 50 μl of 1 μM Cx43 as ODN (SEQ. ID No. 2) (Sigma-Genosys) in 30% Pluronic F-127 gel (Sigma-Aldrich), chilled on ice, was made to one wound, and an identical application of 1 μM sense control sODNs was made to the other. […] Targeting connexin 43 expression accelerates the rate of wound repair. Curr Biol 13, 1697-703). Each wound region was digitally photographed at the indicated time intervals, and the areas of the wounds were calculated. All wound areas were expressed as percentages of the initial wound areas. In some series of experiments, wounds and their surrounding area, including the scab and epithelial margins, were harvested with an 8 mm biopsy punch (Kai Industries) at the indicated time intervals after mice were killed with an overdose of chloroform. A minimum of eight mice were used for each time point examined.

[6] = tested on: blood vessels; test: Angiogenesis at wound sites (von Willebrand factor, CD31, isolectinB staining); format: in vivo, mice
Description: Male, 8 week old, ICR mice were used in the following experiments. All the mice were kept under specific pathogen-free conditions in an environmentally controlled clean room at University College London and all the experiments were carried out under UK Home Office regulations. Mice were anaesthetized by halothane inhalation. Four full-thickness excisional wounds of 6 mm diameter were made on the shaved back on either side of the dorsal midline with a 6 mm biopsy punch (Kai Industries). To each pair of wounds a single topical application of 50 μl of 1 μM Cx43 as ODN (SEQ. ID No. 2) (Sigma-Genosys) in 30% Pluronic F-127 gel (Sigma-Aldrich), chilled on ice, was made to one wound, and an identical application of 1 μM sense control sODNs was made to the other. […] R. and Becker, D. L. (2003). Targeting connexin 43 expression accelerates the rate of wound repair. Curr Biol 13, 1697-703). Each wound region was digitally photographed at the indicated time intervals, and the areas of the wounds were calculated. All wound areas were expressed as percentages of the initial wound areas. In some series of experiments, wounds and their surrounding area, including the scab and epithelial margins, were harvested with an 8 mm biopsy punch (Kai Industries) at the indicated time intervals after mice were killed with an overdose of chloroform. A minimum of eight mice were used for each time point examined.
Wound tissues were fixed in 4% formaldehyde buffered with PBS, and embedded in paraffin. Sections ([…] thick) were subjected to hematoxylin and eosin staining or immunostaining. Measurement of granulation tissue area in H&E was performed using Improvision Openlab™ 4.0.2 software (Improvision). For immunohistochemistry, deparaffinized sections were treated with endogenous peroxidase blocking reagent (Dako Cytomation A/S) and proteinase K (Dako Cytomation A/S) for 20 minutes and 6 minutes at room temperature, respectively. They were then incubated with rabbit antimyeloperoxidase (MPO) polyclonal antibody (NeoMarkers) diluted 1:200, rat anti-mouse F4/80 monoclonal antibody (mAb) (Abcom Limited) diluted 1:400 or rat antimouse CD31 (platelet endothelial cell adhesion molecule 1, PECAM-1) mAb (PharMingen) or rabbit anti-mouse TGF-β1 polyclonal antibody (Santa Cruz Biotechnology, Inc) both diluted 1:200 overnight at 4° C. after blocking with 15% skimmed milk for 1 hour at room temperature. In addition, some sections were reacted with phalloidin-tetramethylrhodamine B isothiocyanate (Sigma-Aldrich) diluted 1:500 for 1 hour at room temperature. The antibodies were appropriately diluted in Antibody Diluent with Background Reducing Components (Dako Cytomation A/S). The sections reacted with anti-MPO antibody and anti TGF-β1 antibody were stained with EnVision+™ (Dako Cytomation A/S) to enhance the signal, according to the manufacturer's instructions. The sections that had been reacted with anti-F4/80 and anti-CD31 antibodies were incubated with biotinylated rabbit anti-rat immunoglobulin (Dako Cytomation A/S) diluted 1:200 for 1 hour at 37° C. The signal was then enhanced using the Catalyzed Signal Amplification System® (Dako Cytomation A/S) according to the manufacturer's instructions. Thereafter, counterstaining was performed with methyl green (Dako Cytomation A/S) followed by MPO, TGF-β1, F4/80, and CD31 staining or 4′,6-diamidino-2-phenylindole (DAPI) followed by phalloidin staining. […]

GTAATTGCGGCAGGAGGAATTGTTTCTGTC (antisense GTAATTGCGGCAGGAGGAATTGTTTCTGTC; in Pluronic F-127 gel, further chemistry not given here) [Cx43 asODN]
expression of TGF-β1 mRNA versus control sODN-treated wounds ([1]; day 2 after the injury, P<0.05): significantly increased | expression of TGF-β1 mRNA, control versus treated wounds ([1]; days 1 and 7): no difference | expression level of TNF-α mRNA [2]: significantly reduced | reduction of number of macrophages versus control sODN-treated wounds ([3]; day 2): 33% | reduction of number of macrophages versus control sODN-treated wounds ([3]; day 7): 32% | collagen type 1α1 in treated wounds [4]: increased | macroscopic wound appearance and closure versus control wounds ([5]; days 1 and 2): significantly smaller, drier, less inflamed and closed faster | re-epithelialisation versus control ODN treated wounds ([5]; excisional and incisional wounds): re-epithelialise more rapidly | blood vessel staining in granulation tissue ([6]; 5 days, none in control wounds): staining was seen in the edges of the granulation tissue of all | quantified blood vessel staining, treated versus controls ([6]; 7 days P=0.0019, 10 days P=0.015): significantly more staining in controls | size of blood vessels and extent of staining, treated versus control ([6]; 14 days): very similar | wounds with fine blood vessels throughout the entire granulation tissue ([6]; day 7): five out of six | enhancement of the rate of wound maturation ([6]; mouse, in vivo): 2 to 3 days
